Tests used:
[1] = test system: stratum corneum of viable human skin; assay: Desquamating activity: cohesion of the stratum corneum on excised human skin maintained under survival conditions; type: cell-based; details: for Score (mean ± sd, n = 6), decrease in the cohesion of the stratum corneum / Appearance of the stratum corneum compared with control skin: 5% by weight in ethanol; for Score (mean ± sd, n = 6), decrease in the cohesion of the stratum corneum: 15 μl per 1 cm^2, applied at D0 and D1, histology at D2, score 0 (absence of modification) to 4 (very large decrease with exfoliation), 6 donors; for Appearance of the stratum corneum compared with control skin: morphology comparison; for Decrease in the cohesion of the stratum corneum with respect to the control skin (desquamating effect): at 5%, paired Student test, p<0.05
Procedure: The study is targeted at detecting the desquamating potential of the active agents in simplex solution by observation of the cohesion of the stratum corneum.
The keratolytic effect on excised skin maintained under survival conditions at 5% by weight in ethanol was evaluated. The study was carried out on viable human skin resulting from abdominal or breast reduction plastic surgery (6 donors).
(§1) The protocol consists in applying the test solutions to skin samples maintained under survival conditions. The products tested are applied in a proportion of 15 μl per 1 cm^2 sample and are not rinsed off. Application is carried out twice, at D0 and then, 24 hours later, at D1. The morphology of the stratum corneum is analysed 48 hours after the first application, at D2, on a biopsy.
The solutions applied are the following: • compound A of Example 1, at 5% by weight in ethanol, and • compound B of Example 2, at 5% by weight in ethanol.
By way of comparison, no solution is applied to some samples, referred to as controls.
The histological analysis of the horny layer is carried out on a skin section after staining with hemalaun-eosin (magnification 400).
6 samples were used for each of the tests (control, compound A and compound B). A paired Student test (p<0.05) was carried out in order to evaluate the significance of the difference with respect to the control.

[2] = test system: epidermis of viable human skin; assay: Tolerance of the skin: morphology of the epidermis of treated excised human skin; type: cell-based; details: 5% by weight in ethanol, compared with control skin
Procedure: as §1
In order to validate the desquamating properties of the compounds A and B and to evaluate the tolerance of the skin to these treatments, the morphology of a control skin was in addition compared with the morphology of the skin samples treated with A and with B present in a content of 5% by weight in ethanol, according to the protocol described above.

| Structure (SMILES) | Score (mean ± sd, n = 6), decrease in the cohesion of the stratum corneum [1] | Appearance of the stratum corneum compared with control skin [1] | Decrease in the cohesion of the stratum corneum with respect to the control skin (desquamating effect) [1] | Morphology of the epidermis (tolerance of the skin) [2] |
| --- | --- | --- | --- | --- |
| O=C(O)c1c(O)cccc1CCCCCCCCO [Compound A] | 1.85 ± 0.4 | decrease in the cohesion of the stratum corneum | statistically significant | preservation of the morphology of the epidermis |
| O=C(O)CCCCCCCc1cccc(O)c1C(=O)O [Compound B] | 1.75 ± 0.2 | decrease in the cohesion of the stratum corneum | statistically significant | preservation of the morphology of the epidermis |
